This note sets out measurements from US20240269120A1, “Method for Treating an Autoimmune and Inflammatory Disease” (Cellestia Biotech AG, priority 2021, published 2024).

One experiment relates to Treg cells. Put plainly: Treg expansion in activated mouse splenocytes in vitro. Format: cell-based. The conditions noted are these: mouse splenocytes stimulated with anti-CD3 and anti-CD28 for 96 hours; FIG. 1. As for the experimental part:
Mouse splenocytes were harvested and single cell suspension stimulated in vitro with anti-CD3 and anti-CD28 antibodies for 96 hours. Treatment with 6-(4-tert-butylphenoxy)pyridin-3-amine, during the same interval of time, caused an expansion of immunosuppressive regulatory T cells (Tregs). Each bar represents the mean±SD (N=3 replicates).
Human PBMCs and mouse splenocyte in vitro stimulation and treatment: Human peripheral blood mononuclear cells (PBMCs) and mouse splenocytes from donors were stimulated in vitro with anti-CD3 and anti-CD28 antibodies. The stimulated cells were simultaneously treated with compounds for 96 hours. The T cells were profiled for different cell surface and intracellular markers and proliferation by flow cytometry.
Flow cytometry analysis: Flow cytometry analysis was performed to quantify cell surface and intracellular markers expression and measure cell division index.
Viability staining: Cells were transferred into a 96 well conical bottom plate and washed with serum free PBS1×. Cells were incubated with Zombie NIR (Biolegend #423105)+FC block ([…]) for 20 minutes at 4° C. […]
FOXP3 nuclear staining: Cells were fixed and permeabilized with Foxp3 Transcription Factor Staining Buffer Set (ThermoFisher #00-5523) for 20 minutes at room temperature. […] Results are finally analysed with the software FlowJo v.10.7.1.

The next experiment has as its system IL-10 mRNA. In words: Quantitative RT-PCR of splenocyte mRNA after in vivo dosing: IL-10. Further details: species or system mouse. The conditions noted are these: in vivo treated mice vs vehicle; p<0.05; FIG. 3. On the procedure:
FIG. 3: In vivo 6-(4-tert-butylphenoxy)pyridin-3-amine dosing leads to an upregulation of anti-inflammatory cytokine IL-10 mRNA in mouse spleen. […] Each bar represents the mean±SD (N=3 replicates). (*) p<0.05
In vivo treatment of mice and pharmacodynamic response: Mice experiments were performed in compliance with authorization to perform animal experiments (VD3323). Briefly, 6-8 weeks old wild type C57Bl6 mice were subcutaneously or intraperitoneally dosed with vehicle or compounds for different durations. Mice were sacrificed, spleens were harvested 24 hours post-last dosing. Splenocytes were analyzed for cell surface and intracellular markers expression using flow cytometry. RNA expression analyses were performed using quantitative real time PCR.

Experiment [1] deals with NSG mice injected with human PBMCs (GvHD). Put plainly: Humanized GvHD mouse model, ex vivo treated human PBMCs, no in vivo treatment. Further details: GvHD clinical score: Body weight loss: dose or concentration left out as unconfirmed. The conditions noted are these: day 21. On the procedure: Humanized GvHD mouse model: 6-8 weeks old NSG mice were intraperitoneally injected with 10 million human peripheral blood mononuclear cells (PBMCs) as below:
Ex vivo treatment of PBMCs: 10 million human PBMCs from healthy donor #1 were ex-vivo treated with DMSO and […] of 6-(4-tert-butylphenoxy)pyridin-3-amine for 6 hours. Ex-vivo treated PBMCs were intraperitoneally injected into mice (10 million per mouse). 10 NSG mice were injected with DMSO pre-treated PBMCs and 10 NSG mice were injected with 6-(4-tert-butylphenoxy)pyridin-3-amine pre-treated PBMCS. Following PBMC injections mice were monitored for up to 42 days for symptoms of GvHD development as measured by standardized GvHD clinical score system. No in-vivo drug treatment was administered.
A cumulative GvHD clinical score was calculated by addition of scores for individual parameters (e.g. cumulative score=BWL+posture+activity+fur texture+skin integrity+paleness).

Another experiment relates to IL-6. Put plainly: Cytokine analysis in allogeneic bone marrow transplant (LEGENDplex): IL-6. The conditions noted are these: allo-BM+splenocyte transplanted mice, day 36, vs vehicle; FIG. 6. In kind it is in vivo, mouse. As for the experimental part: Allogeneic Bone marrow transplant: Recipient Balb/c mice were irradiated twice 3.75Gy (T=0 and T=4 h) in an X-ray source irradiator before transplantation at T=8 h. Treatment with antibiotics (Nopil) and analgesic (Dafalgan) was supplemented to drinking water 4 days before injection. Irradiated recipient Balb/c mice were transplanted with 5 million T cell depleted bone marrow+1 million splenocytes. Allogeneic recipient animals were treated with vehicle or 6-(4-tert-butylphenoxy)pyridin-3-amine subcutaneously at 20 mg/kg for two days immediately after allo-BM transplant, given a 10 days treatment holiday to recover body weight loss due to whole body irradiation and then treatment continued at 20 mg/kg. […] Animals were monitored for symptoms of GvHD development (severe body weight loss, alopecia and diarrhea.
Cytokine analysis in allogeneic Bone marrow transplant: The recipient animals were bled on day 36 and blood plasma was extracted to determine inflammatory cytokine concentration (IFNγ, IL-6, IL-17a) by LEGENDplex™ multiplexed assay.

Setting [2] is: PBMCs pre-treated ex-vivo, DMSO group 0.71.

The structures appear in SMILES notation. Several values for one entry are separate records, joined by “and”; a condition that tells them apart may be missing. Identical values can stand only once.

As to `CC(C)(C)c1ccc(Oc2ccc(N)cn2)cc1` [6-(4-tert-butylphenoxy)pyridin-3-amine], the “expansion of Treg cells” value in the experiment on Treg cells is given as “expansion of Treg cells”. In addition, in the experiment on IL-10 mRNA, the “IL-10 transcript in splenocytes” value is given as “upregulation”. Further, the “GvHD clinical score: Body weight loss” value in experiment [1] (PBMCs pre-treated ex-vivo (6 hours), DMSO group 1.0) is reported as 0. Besides, the “GvHD clinical score: Skin integrity” value in experiment [1] (PBMCs pre-treated ex-vivo, DMSO group 0.14) stood at 0. Also, the “GvHD clinical score: Fur texture” value in experiment [1] (PBMCs pre-treated ex-vivo, DMSO group 0.57) came out at 0.14. For the same compound, in experiment [1] (setting [2]), the “GvHD clinical score: Activity score” value is 0.14, the “GvHD clinical score: Paleness” value worked out at 0 and the “GvHD clinical score: Posture” value is on record as 0.14. For the same compound, the “Cumulative GvHD score” value in experiment [1] (sum of individual scores, DMSO group 3.84) was “decreased cumulative GvHD score significantly and 0.42”. The “IL-6 in blood plasma” value in the experiment with IL-6 is “downregulation”.
